test system: not given; experiment: not given; settings: not given

| melting point | Structure (SMILES) |
| --- | --- |
| > 300 °C | Nc1cccc(Nc2cc(S(=O)(=O)[O-])c(N)c3c2C(=O)c2ccccc2C3=O)c1.[Na+] |
| > 300 °C | Nc1c(S(=O)(=O)[O-])cc(Nc2ccc(C(=O)O)cc2)c2c1C(=O)c1ccccc1C2=O.[Na+] [Example 4, Sodium 1-amino-4-(4-carboxyphenylamino)-9,10-dioxo-9,10-dihydroanthracene 2-sulfonate] |
| > 300 °C | Cc1cc(C)cc(Nc2cc(S(=O)(=O)[O-])c(N)c3c2C(=O)c2ccccc2C3=O)c1.[Na+] [Example 22, Sodium 1-amino-4-(3,5-dimethylphenylamino)-9,10-dioxo-9,10-dihydroanthracene 2-sulfonate] |
| > 300 °C | Nc1c(S(=O)(=O)[O-])cc(Nc2ccc(O)c(C(=O)O)c2)c2c1C(=O)c1ccccc1C2=O.[Na+] [Example 25, Sodium 1-amino-4-(3-carboxy-4-hydroxyphenylamino)-9,10-dioxo-9,10-dihydroanthracene 2-sulfonate] |
| > 300 °C | COc1cccc(Nc2cc(S(=O)(=O)[O-])c(N)c3c2C(=O)c2ccccc2C3=O)c1.[Na+] [Example 18, Sodium 1-amino-4-(3-methoxyphenylamino)-9,10-dioxo-9,10-dihydroanthracene 2-sulfonate] |
| > 300 °C | Nc1c(S(=O)(=O)[O-])cc(Nc2ccc(F)cc2)c2c1C(=O)c1ccccc1C2=O.[Na+] [Example 20, Sodium 1-amino-4-(4-fluorophenylamino)-9,10-dioxo-9,10-dihydroanthracene 2-sulfonate] |
| > 300 °C | COc1ccc(Nc2cc(S(=O)(=O)[O-])c(N)c3c2C(=O)c2ccccc2C3=O)cc1.[Na+] [Example 19, Sodium 1-amino-4-(4-methoxyphenylamino)-9,10-dioxo-9,10-dihydroanthracene 2-sulfonate] |
| > 300 °C | Nc1ccc(Nc2cc(S(=O)(=O)[O-])c(N)c3c2C(=O)c2ccccc2C3=O)cc1.[Na+] |
| > 300 °C | Nc1c(S(=O)(=O)[O-])cc(Nc2cccc(Br)c2)c2c1C(=O)c1ccccc1C2=O.[Na+] [Example 21, Sodium 1-amino-4-(3-bromophenylamino)-9,10-dioxo-9,10-dihydroanthracene 2-sulfonate] |
| > 300 °C | Nc1c(S(=O)(=O)[O-])cc(Nc2ccccc2S(=O)(=O)[O-])c2c1C(=O)c1ccccc1C2=O.[Na+].[Na+] [Example 26, Disodium 1-amino-4-(2-sulfophenylamino)-9,10-dioxo-9,10-dihydroanthracene 2-sulfonate] |
| > 300 °C | Nc1c(S(=O)(=O)[O-])cc(Nc2cccc(C(=O)O)c2)c2c1C(=O)c1ccccc1C2=O.[Na+] [Example 3, Sodium 1-amino-4-(3-carboxyphenylamino)-9,10-dioxo-9,10-dihydroanthracene 2-sulfonate] |
| > 300 °C | Cc1c(N)cccc1Nc1cc(S(=O)(=O)[O-])c(N)c2c1C(=O)c1ccccc1C2=O.[Na+] [Example 24, Sodium 1-amino-4-(3-amino-2-methylphenylamino)-9,10-dioxo-9,10-dihydroanthracene 2-sulfonate] |
| > 300 °C | Nc1c(S(=O)(=O)[O-])cc(Nc2ccccc2O)c2c1C(=O)c1ccccc1C2=O.[Na+] |
| > 300 °C | Nc1ccccc1Nc1cc(S(=O)(=O)[O-])c(N)c2c1C(=O)c1ccccc1C2=O.[Na+] [Example 5, Sodium 1-amino-4-(2-aminophenylamino)-9,10-dioxo-9,10-dihydroanthracene 2-sulfonate] |

| Structure (SMILES) | melting point |
| --- | --- |
| Nc1cc(Nc2cc(S(=O)(=O)[O-])c(N)c3c2C(=O)c2ccccc2C3=O)cc(C(=O)O)c1.[Na+] | > 300 °C |
| Nc1c(S(=O)(=O)[O-])cc(Nc2ccccc2C(=O)O)c2c1C(=O)c1ccccc1C2=O.[Na+] | > 300 °C |
| Nc1c(S(=O)(=O)[O-])cc(Nc2cc(Cl)ccc2C(=O)O)c2c1C(=O)c1ccccc1C2=O.[Na+] | > 300 °C |
| Nc1c(S(=O)(=O)[O-])cc(Nc2ccc(S(=O)(=O)[O-])cc2)c2c1C(=O)c1ccccc1C2=O.[Na+].[Na+] | > 300 °C |
| Nc1c(S(=O)(=O)[O-])cc(Nc2ccc(O)cc2)c2c1C(=O)c1ccccc1C2=O.[Na+] | > 300 °C |

biological target: T1, human platelet P2Y12 receptors (Homo sapiens, UniProt Q9H244); experiment: Radioligand binding assay with [3H]PSB-0413 at human platelet membranes; settings: not given
T1 construct: Membranes were prepared from human outdated platelets from the blood bank; from tissue; host or cells: human platelets (University of Bonn blood bank), membrane preparation
Method: Membranes were prepared from human outdated platelets from the blood bank. Outdated human platelets were obtained from the University of Bonn blood bank 4-5 days after donation. Platelet rich plasma was washed by centrifugation (10 min at 1000 g) in a buffer consisting of 50 mM Tris-HCl, pH 7.4, 5 mM EDTA and 150 mM NaCl. The supernatant was centrifuged twice (48400 g for 60 min) and the resultant platelet pellet were resuspended in 5 mM Tris-HCl (pH 7.4) containing 5 mM EDTA. The platelets were homogenized by a homogenizer. The final suspension was stored frozen as multiple aliquots at −80° C. until needed. Protein concentrations were determined by the method of Lowry using a Sigma Chemie protein assay kit.
Radioligand binding assays were performed using 5 nM [^3H]PSB-0413 and 100 μg of protein in Tris-HCl buffer 50 mM, pH 7.4, as previously described. (El-Tayeb, A., Griessmeier, K. J, Müller, C. E. Bioorg. Med. Chem. Lett. 2005, 15, 5450-52; Atzler, K. Doctoral Thesis, University of Bonn, 2006). Competition by 10 μM of test compound was initially determined. The mixture was incubated for 1 h at rt followed by filtration through GF/B filters. Nonspecific binding was determined with 1 mM ADP or 250 μM RB 2. […] At least three independent experiments were performed each in triplicate.
The data were analyzed using GraphPad Prism 4.0 (GraphPad Software, Inc., San Diego, Calif.).

T1 sequence (Q9H244 whole entry): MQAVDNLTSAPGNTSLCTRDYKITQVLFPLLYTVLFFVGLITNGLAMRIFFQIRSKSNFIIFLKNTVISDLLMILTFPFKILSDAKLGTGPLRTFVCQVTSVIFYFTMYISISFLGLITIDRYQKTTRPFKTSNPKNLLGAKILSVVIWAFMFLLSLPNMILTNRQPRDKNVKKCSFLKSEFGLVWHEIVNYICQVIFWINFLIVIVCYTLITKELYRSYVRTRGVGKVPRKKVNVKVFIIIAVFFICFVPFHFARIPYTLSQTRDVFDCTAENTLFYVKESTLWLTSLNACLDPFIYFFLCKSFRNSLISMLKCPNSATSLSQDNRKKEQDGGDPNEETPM

| Structure (SMILES) | Ki |
| --- | --- |
| Nc1c(S(=O)(=O)O)cc(Nc2ccc(S(=O)(=O)O)c(Nc3nc(Cl)nc(Cl)n3)c2)c2c1C(=O)c1ccccc1C2=O [Entry 31] | 17.1 ± 7.8 µM |

same assay, conditions: human platelet membranes, 5 nM [3H]PSB-0413, 1 h at rt; mean ± SEM; read-out: hP2Y12 Receptor Ki [μM ± SEM] vs. [3H]PSB-0413

| Structure (SMILES) | Ki |
| --- | --- |
| Nc1cc(Nc2cc(S(=O)(=O)O)c(N)c3c2C(=O)c2ccccc2C3=O)cc(C(=O)O)c1 [Entry 6] | 7.07 ± 1.7 µM |
| Nc1c(S(=O)(=O)O)cc(Nc2ccc(Nc3nc(Cl)nc(Cl)n3)c(S(=O)(=O)O)c2)c2c1C(=O)c1ccccc1C2=O [Entry 32] | 2.45 ± 1 µM |
| Nc1c(S(=O)(=O)O)cc(Nc2ccc(Nc3nc(O)nc(O)n3)cc2S(=O)(=O)O)c2c1C(=O)c1ccccc1C2=O [Entry 39] | > 10 µM |
| Nc1cccc(Nc2cc(S(=O)(=O)O)c(N)c3c2C(=O)c2ccccc2C3=O)c1 [Entry 14] | > 10 µM |
| Nc1c(S(=O)(=O)O)cc(Nc2ccc(O)cc2)c2c1C(=O)c1ccccc1C2=O [Entry 12] | ~10 µM |
| Nc1c(S(=O)(=O)O)cc(Nc2ccc(S(=O)(=O)O)cc2)c2c1C(=O)c1ccccc1C2=O [Entry 2] | 3.13 ± 0.39 µM |
| Nc1c(S(=O)(=O)O)cc(Nc2cc(Cl)ccc2C(=O)O)c2c1C(=O)c1ccccc1C2=O [Entry 7] | 12.2 ± 0.3 µM |
| Nc1c(S(=O)(=O)O)cc(Nc2cc(Nc3nc(Cl)nc(Cl)n3)cc(C(=O)O)c2)c2c1C(=O)c1ccccc1C2=O [Entry 34] | 3.76 ± 1.03 µM |
| Nc1c(S(=O)(=O)O)cc(Nc2ccc(Nc3ncccn3)cc2)c2c1C(=O)c1ccccc1C2=O [Entry 36] | ~10 µM |
| Nc1c(S(=O)(=O)O)cc(Nc2ccc(Cl)cc2C(=O)O)c2c1C(=O)c1ccccc1C2=O [Entry 10] | 12.3 ± 1.7 µM |
| Nc1c(S(=O)(=O)O)cc(Nc2ccc(Nc3nc(Cl)nc(Cl)n3)cc2)c2c1C(=O)c1ccccc1C2=O [Entry 35] | 1.9 ± 0.24 µM |
| Nc1c(S(=O)(=O)O)cc(Nc2ccccc2C(=O)O)c2c1C(=O)c1ccccc1C2=O [Entry 8] | 25.1 ± 7 µM |
| Nc1c(S(=O)(=O)O)cc(Nc2ccc(Nc3nc(O)nc(O)n3)c(S(=O)(=O)O)c2)c2c1C(=O)c1ccccc1C2=O [Entry 38] | ~10 µM |
| Nc1c(S(=O)(=O)O)cc(Nc2ccc(Sc3ccccc3)cc2)c2c1C(=O)c1ccccc1C2=O [Entry 19] | 0.884 ± 0.525 µM |
| Nc1cc(Nc2cc(S(=O)(=O)O)c(N)c3c2C(=O)c2ccccc2C3=O)ccc1S(=O)(=O)O [Entry 4] | 2.1 ± 0.47 µM |
| Nc1c(S(=O)(=O)O)cc(Nc2ccccc2O)c2c1C(=O)c1ccccc1C2=O [Entry 11] | ~10 µM |
| Nc1ccc(Nc2cc(S(=O)(=O)O)c(N)c3c2C(=O)c2ccccc2C3=O)c(S(=O)(=O)O)c1 [Entry 9] | 19.7 ± 8.27 µM |
| Cc1cc(Nc2ccc(Nc3ccccc3)c(S(=O)(=O)O)c2)c2c(c1N)C(=O)c1ccccc1C2=O [Entry 30] | 0.541 µM |
| Nc1c(S(=O)(=O)O)cc(Nc2ccc(Cc3ccccc3)cc2)c2c1C(=O)c1ccccc1C2=O [Entry 13] | 0.614 µM |
| Nc1c(S(=O)(=O)O)cc(Nc2ccc(Oc3ccccc3)c(S(=O)(=O)O)c2)c2c1C(=O)c1ccccc1C2=O [Entry 22] | 0.063 ± 0.009 µM |
| Nc1c(S(=O)(=O)O)cc(Nc2ccc(Nc3ccccc3)c(S(=O)(=O)O)c2)c2c1C(=O)c1ccccc1C2=O [Entry 24] | 0.0249 ± 0.0032 µM |

Reference: patent US20100210654A1, “NOVEL P2Y12 RECEPTOR ANTAGONISTS” (RHEINISCHE FRIEDRICH-WILHELMS UNIVERSITÄT BONN, priority 2007, published 2010)
